Target: mitochondrial RNA-polymerase (POLRMT) (Mus musculus, UniProt Q8BKF1)
Assay: Homogeneous TR-FRET assay for mitochondrial transcription activity
Format: biochemical
Details: homogeneous TR-FRET assay according to Example 4; activity class
Procedure, shortened: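 TR-FRET read-out (340 nm excitation, 665 nm emission) of a 407 bp transcript captured by Eu-streptavidin/biotin donor and ATTO647N acceptor DNA probes after EDTA stop. Transcription ran 2 h at RT with 500 μM […], mouse POLRMT/TFAM/TFB2M and LSP-plasmid template, after 10 min compound preincubation (10 μM or dilution series).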

Sequence of mitochondrial RNA-polymerase (POLRMT) (Q8BKF1 42-1207): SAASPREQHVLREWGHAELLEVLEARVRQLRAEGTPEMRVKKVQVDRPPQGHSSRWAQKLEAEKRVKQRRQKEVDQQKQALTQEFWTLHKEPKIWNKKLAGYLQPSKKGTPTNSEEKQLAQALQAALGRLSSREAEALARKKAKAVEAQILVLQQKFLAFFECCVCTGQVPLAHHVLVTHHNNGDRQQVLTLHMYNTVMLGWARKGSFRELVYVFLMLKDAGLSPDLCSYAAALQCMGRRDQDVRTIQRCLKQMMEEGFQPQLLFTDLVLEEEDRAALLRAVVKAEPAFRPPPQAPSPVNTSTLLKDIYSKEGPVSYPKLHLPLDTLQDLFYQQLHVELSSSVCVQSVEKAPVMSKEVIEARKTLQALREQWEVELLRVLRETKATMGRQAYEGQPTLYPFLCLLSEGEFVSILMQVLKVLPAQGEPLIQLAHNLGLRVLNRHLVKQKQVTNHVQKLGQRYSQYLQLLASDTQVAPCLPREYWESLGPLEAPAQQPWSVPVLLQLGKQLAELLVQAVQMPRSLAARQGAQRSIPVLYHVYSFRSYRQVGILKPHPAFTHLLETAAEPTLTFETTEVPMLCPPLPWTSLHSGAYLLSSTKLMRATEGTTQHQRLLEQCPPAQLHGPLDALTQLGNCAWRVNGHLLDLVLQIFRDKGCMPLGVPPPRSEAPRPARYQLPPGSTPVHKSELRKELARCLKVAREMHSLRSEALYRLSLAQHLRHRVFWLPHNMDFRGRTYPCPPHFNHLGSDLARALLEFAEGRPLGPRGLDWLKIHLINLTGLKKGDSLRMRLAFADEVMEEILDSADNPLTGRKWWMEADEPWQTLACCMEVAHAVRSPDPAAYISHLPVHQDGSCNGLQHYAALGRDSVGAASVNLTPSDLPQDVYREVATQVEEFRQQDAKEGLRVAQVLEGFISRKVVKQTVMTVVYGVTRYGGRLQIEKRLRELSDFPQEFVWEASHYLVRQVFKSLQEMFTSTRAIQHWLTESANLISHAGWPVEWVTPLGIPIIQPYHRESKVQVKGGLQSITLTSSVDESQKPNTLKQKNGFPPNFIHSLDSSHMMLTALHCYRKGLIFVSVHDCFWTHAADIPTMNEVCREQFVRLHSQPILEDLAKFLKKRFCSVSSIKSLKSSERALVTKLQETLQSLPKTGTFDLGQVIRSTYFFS

**Q.** How did the IC50 turn out when `C[C@@H](Oc1ccc2c(-c3ccc(F)cc3Cl)cc(=O)oc2c1)C(=O)Nc1cccc(C(=O)O)n1` [Compound 151, 6-[[(2R)-2-[4-(2-chloro-4-fluoro-phenyl)-2-oxo-chromen-7-yl]oxypropanoyl]amino]pyridine-2-carboxylic acid] was run?
**A.** Its IC50 is less than 0.02 µM.

**Q.** For `COC(=O)C1CCCN(C(=O)C(C)Oc2ccc3c(-c4ccccc4Cl)cc(=O)oc3c2)C1` (stereo not drawn) [Compound 7, methyl 1-[2-[4-(2-chlorophenyl)-2-oxo-chromen-7-yl]oxypropanoyl]piperidine-3-carboxylate], which IC50 is on record?
**A.** Its IC50 is less than 0.02 µM.

**Q.** `CC(Oc1ccc2c(-c3ccccc3Cl)cc(=O)oc2c1)C(=O)N1CCC(F)(F)CC1` (stereo not drawn) [Compound 74, 4-(2-chlorophenyl)-7-[2-(4,4-difluoro-1-piperidyl)-1-methyl-2-oxo-ethoxy]chromen-2-one] was tested. Which IC50 did it give?
**A.** The IC50 was 0.02 to 0.1 µM.

**Q.** With `Cc1ccccc1-c1cc(=O)oc2cc(OC(C)C(=O)O)ccc12` (stereo not drawn) [Compound 97, 2-[4-(o-tolyl)-2-oxo-chromen-7-yl]oxypropanoic acid] as the compound, how does the IC50 read?
**A.** The IC50 was 0.1 to 1 µM.

**Q.** How did the IC50 turn out when `CCOC(=O)C(C)Oc1ccc2c(-c3ccccc3C)cc(=O)oc2c1` (stereo not drawn) [Compound 58, ethyl 2-[4-(o-tolyl)-2-oxo-chromen-7-yl]oxypropanoate] was run?
**A.** The IC50 was 0.02 to 0.1 µM.

**Q.** How did the IC50 turn out when `Cc1ccccc1-c1cc(=O)oc2cc(O[C@H](C)C(=O)N3CCC[C@H](C#N)C3)ccc12` [Compound 32, (3S)-1-[(2R)-2-[4-(o-tolyl)-2-oxo-chromen-7-yl]oxypropanoyl]piperidine-3-carbonitrile] was run?
**A.** Its IC50 is less than 0.02 µM.

**Q.** For `COC(=O)c1ccc(NC(=O)[C@@H](C)Oc2ccc3c(-c4ccc(F)cc4Cl)cc(=O)oc3c2)cn1` [Compound 153, methyl 5-[[(2R)-2-[4-(2-chloro-4-fluoro-phenyl)-2-oxo-chromen-7-yl]oxypropanoyl]amino]pyridine-2-carboxylate], which IC50 is on record?
**A.** Its IC50 is 0.02 to 0.1 µM.

**Q.** Which IC50 does the source give for `CNS(=O)(=O)C1CCCN(C(=O)C(C)Oc2ccc3c(-c4ccccc4Cl)cc(=O)oc3c2)C1` (stereo not drawn) [Compound 20, 1-[2-[4-(2-chlorophenyl)-2-oxo-chromen-7-yl]oxypropanoyl]-N-methyl-piperidine-3-sulfonamide] here?
**A.** Its IC50 is less than 0.02 µM.

**Q.** For `CC(Oc1ccc2c(-c3ccccc3Cl)cc(=O)oc2c1)C(=O)Nc1ccc(CCO)cc1` (stereo not drawn) [Compound 35, 2-[4-(2-chlorophenyl)-2-oxo-chromen-7-yl]oxy-N-[4-(2-hydroxyethyl)phenyl]propanamide], which IC50 is on record?
**A.** Its IC50 is less than 0.02 µM.

**Q.** How did the IC50 turn out when `Cc1ccccc1-c1cc(=O)oc2cc(O[C@H](C)C(=O)N(C)C)ccc12` [Compound 44, (2R)-N,N-dimethyl-2-[4-(o-tolyl)-2-oxo-chromen-7-yl]oxy-propanamide] was run?
**A.** Its IC50 is less than 0.02 µM.

**Q.** Which IC50 does the source give for `COC(=O)c1ccnc(NC(=O)[C@@H](C)Oc2ccc3c(-c4ccc(F)cc4Cl)cc(=O)oc3c2)c1` [Compound 146, methyl 2-[[(2R)-2-[4-(2-chloro-4-fluoro-phenyl)-2-oxo-chromen-7-yl]oxypropanoyl]amino]pyridine-4-carboxylate] here?
**A.** The IC50 was 0.1 to 1 µM.

**Q.** With `CC(Oc1ccc2c(-c3ccccc3Cl)cc(=O)oc2c1)C(=O)N1CCCC(c2nn[nH]n2)C1` (stereo not drawn) [Compound 39, 4-(2-chlorophenyl)-7-[1-methyl-2-oxo-2-[3-(2H-tetrazol-5-yl)-1-piperidyl]ethoxy]chromen-2-one] as the compound, how does the IC50 read?
**A.** The IC50 was less than 0.02 µM.

**Q.** With `Cc1ccccc1-c1cc(=O)oc2cc(OC(C)C(=O)N3CCCC(CC(=O)O)C3)ccc12` (stereo not drawn) [Compound 72, 2-[1-[2-[4-(o-tolyl)-2-oxo-chromen-7-yl]oxypropanoyl]-3-piperidyl]acetic acid] as the compound, how does the IC50 read?
**A.** Its IC50 is 0.02 to 0.1 µM.

**Q.** For `CCOC(=O)[C@H]1CCCN(C(=O)C(C)Oc2ccc3c(-c4ccccc4C)cc(=O)oc3c2)C1` (stereo partly drawn) [Compound 17, ethyl (3S)-1-[2-[4-(o-tolyl)-2-oxo-chromen-7-yl]oxypropanoyl]piperidine-3-carboxylate], which IC50 is on record?
**A.** Its IC50 is less than 0.02 µM.

**Q.** Which IC50 does the source give for `COC(=O)c1cc(NC(=O)[C@@H](C)Oc2ccc3c(-c4ccc(F)cc4Cl)cc(=O)oc3c2)ccn1` [Compound 156, methyl 4-[[(2R)-2-[4-(2-chloro-4-fluoro-phenyl)-2-oxo-chromen-7-yl]oxypropanoyl]amino]pyridine-2-carboxylate] here?
**A.** Its IC50 is 0.02 to 0.1 µM.

Reference: patent publication US11111238B2, “Coumarin derivatives, processes for their preparation and uses thereof for the treatment of cancer” (Lead Discovery Center GmbH, priority 2017, dated 2021)
